Test results reported in US20250114313A1, “OLIGO-BENZAMIDE ANALOGS AND THEIR USE IN CANCER TREATMENT” (BOARD OF REGENTS, THE UNIVERSITY OF TEXAS SYSTEM, priority 2022, published 2025).

Experiments:
[1] = tested on: HSPA5, DDIT3, sXBP1 mRNA in TNBC cells; test: RT-qPCR of ER stress / UPR genes, TNBC cells; type: cell-based, Human
Description: Real-time quantitative PCR (RT-qPCR): Total RNA was prepared from breast cancer cells using the RNeasy Mini Kit (Qiagen) according to the manufacturer protocols. Subsequently, total RNAs were reverse transcribed into cDNA using iScript Reverse Transcription Supermix (Bio-rad) and by using SYBR Green on an Illumina Real-Time PCR system.

[2] = tested on: HSPA5, DDIT3, sXBP1 mRNA in HMEC cells; test: RT-qPCR of ER stress / UPR genes, HMEC; type: cell-based, human; conditions: 1 μM
LIPA KO SUM-159 cells = test: Live cell confocal imaging of ER tubule width, SUM-159 LIPA KO; type: cell-based, Human; conditions: 1 μM
Description: Live cell confocal and Airyscan imaging: To visualize ER structure, stable SUM-159 cell lines expressing mCherry-RAMP4 were established. pLenti-X1-hygro-mCherry-RAMP4 was purchased from Addgene (Addgene #118391; //n2t.net/addgene:118391; RRID:Addgene_118391) (via Jacob Corn).^35 The live cell images were acquired by Confocal Zeiss LSM880 Airyscan. ER tubule width was calculated by drawing 1px-wide line scans perpendicular to the long axis of individual ER tubules. In MATLAB, the peak intensity along each line scan was determined and the distance between the half maximum intensity on either side of the peak was measured. The code for this analysis is available at: //github.com/andmoo91/HalfMaxScript.

[3] = tested on: ovarian cancer PDX (OCa-PDX-38); test: Ovarian cancer PDX OCa-PDX-38; type: in vivo, NSG mice; conditions: 10 mg/kg daily
Description: Animal Studies: All animal experiments were performed using UTHSA and UTSW IACUC approved protocols. For cell based xenograft tumor assays, TNBC cells (2×10^5-2×10^6) were mixed with an equal volume of matrigel and implanted in the mammary fat pads of 6-week-old female athymic nude mice as described^33. BALB/c mice were used for D2A1 syngeneic model. Once tumors reached measurable size, mice were divided into control (vehicle) and ERX-41 (10 mg/kg/oral) treatment groups. Mice bearing TNBC PDX tumors were purchased from Jackson laboratory (TM00089; TM00096; TM00098). TNBC PDX line UTPDX0001 establishment was earlier described^38. WHIM-20 ER+PDX model was purchased from Horizon Labs. OCa-PDX-38 was received from UTHSA ObGyn tissue procurement core. When tumors reached ˜750 mm^3 they were dissected into 2 mm^3 pieces and implanted into the mammary fat pads of 6 weeks old female SCID or NSG mice. When the tumor volume reached ˜200 mm^3, mice were randomized for treatment. The mice were monitored daily for adverse toxic effects and tumor volume was measured every 3-4 days using calipers. For establishing ES2 tumors, ES2/GFP/LUC cells were injected i.p. and tumors were measured twice a week using Xenogen in vivo imaging system. […] The mice were monitored daily for adverse toxic effects. […] The sections were scored by two independent evaluators blinded to the patient's clinical status.

TNBC = test: ER stress, cell death and lysosomes in TNBC (discussion, no method); type: cell-based

## CC(C)COc1cc(C(=O)Nc2ccc(C(=O)N[C@H]3CC[C@H](C)CC3)cc2OCC(C)C)ccc1NC(=O)c1ccc([N+](=O)[O-])c(OCCO)c1 [ERX-41]
[1]; 1 μM, TNBC cells
  upregulation of HSPA5, DDIT3, sXBP1 mRNA: 60-80 fold
[1]; RT-qPCR, parental SUM-159 cells
  expression of sXBP1 and DDIT3, parental SUM-159: induces expression of UPR genes sXBP1 and DDIT3
[2]
  upregulation of HSPA5, DDIT3, sXBP1 mRNA in HMEC: not in HMEC cells
LIPA KO SUM-159 cells
  ER tubule diameter in LIPA KO cells: no significant changes in ER tubule diameter
[3]
  activity against OCa-PDX-38: has activity against
TNBC
  changes in lysosomes: no significant changes in lysosomes
